Biological target: α4β7 integrin (Homo sapiens (Human), UniProt P13612+P26010)
Experiment: α4β7 Integrin Cell Capture Assay
Type: cell-based
Experimental: α4β7 Integrin Cell Capture Assay
The potency of inhibitors in preventing α4β7 integrin interaction with MadCAM-1 was measured by monitoring the capture of α4β7 integrin expressing cells on a recombinant MadCAM-1 extracellular domain-coated plate. […] The plates were then washed with PBS and blocked with 3% BSA for 2 hours before being washed again.
RPM18866 cells were spun down and re-suspended in assay medium (DMEM+0.5% FBS+0.5 mM MnCl2) at a density of 0.5×10^6 cells/mL. […] The plates were incubated at 37° C. for 1 hour. 50 μL of cells were transferred to the blocked, MadCAM-1-coated plates and incubated for 30 minutes at 37° C. […] The plates were incubated for 90 minutes at room temperature. The plates were then washed 3 times with 70 μL of PBS per well and imaged on a Cellomics ArrayScan instrument. The cells that were bound to the plate were counted and plotted against the compound concentration to determine the EC50 of the test compounds.

[1] = RPMI8866 cells captured on MadCAM-1 extracellular domain-coated plate
[2] = Table 2, capture of α4β7 expressing RPM18866 cells on MadCAM-1 extracellular domain-coated plate
[3] = Table 1, capture of α4β7 expressing RPM18866 cells on MadCAM-1 extracellular domain-coated plate

Sequence of α4β7 integrin (P13612 34-1032): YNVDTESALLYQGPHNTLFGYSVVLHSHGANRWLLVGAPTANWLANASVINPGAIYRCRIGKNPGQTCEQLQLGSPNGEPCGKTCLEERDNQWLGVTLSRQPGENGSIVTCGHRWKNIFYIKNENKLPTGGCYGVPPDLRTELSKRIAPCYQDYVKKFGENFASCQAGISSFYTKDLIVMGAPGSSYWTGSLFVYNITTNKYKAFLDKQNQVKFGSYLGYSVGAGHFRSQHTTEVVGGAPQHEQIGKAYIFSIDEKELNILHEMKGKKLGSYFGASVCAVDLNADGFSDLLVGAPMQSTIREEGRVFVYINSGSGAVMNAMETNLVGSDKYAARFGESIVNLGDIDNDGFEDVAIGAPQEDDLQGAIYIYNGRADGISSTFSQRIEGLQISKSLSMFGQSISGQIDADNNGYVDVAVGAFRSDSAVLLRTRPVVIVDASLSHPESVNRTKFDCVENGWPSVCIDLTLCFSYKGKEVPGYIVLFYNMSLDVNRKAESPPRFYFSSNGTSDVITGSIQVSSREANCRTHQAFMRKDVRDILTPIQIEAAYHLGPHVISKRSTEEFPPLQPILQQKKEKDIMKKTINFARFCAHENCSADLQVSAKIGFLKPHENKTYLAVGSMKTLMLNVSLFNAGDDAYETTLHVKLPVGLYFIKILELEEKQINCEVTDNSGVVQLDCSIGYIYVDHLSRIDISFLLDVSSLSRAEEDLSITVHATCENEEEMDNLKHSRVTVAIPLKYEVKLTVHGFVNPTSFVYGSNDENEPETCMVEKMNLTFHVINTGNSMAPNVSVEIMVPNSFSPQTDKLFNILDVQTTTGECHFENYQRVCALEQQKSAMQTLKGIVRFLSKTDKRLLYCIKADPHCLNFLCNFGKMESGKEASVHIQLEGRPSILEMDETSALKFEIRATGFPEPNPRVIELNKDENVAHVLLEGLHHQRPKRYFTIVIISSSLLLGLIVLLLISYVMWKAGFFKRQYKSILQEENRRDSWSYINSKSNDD
Sequence of α4β7 integrin (P26010 20-798): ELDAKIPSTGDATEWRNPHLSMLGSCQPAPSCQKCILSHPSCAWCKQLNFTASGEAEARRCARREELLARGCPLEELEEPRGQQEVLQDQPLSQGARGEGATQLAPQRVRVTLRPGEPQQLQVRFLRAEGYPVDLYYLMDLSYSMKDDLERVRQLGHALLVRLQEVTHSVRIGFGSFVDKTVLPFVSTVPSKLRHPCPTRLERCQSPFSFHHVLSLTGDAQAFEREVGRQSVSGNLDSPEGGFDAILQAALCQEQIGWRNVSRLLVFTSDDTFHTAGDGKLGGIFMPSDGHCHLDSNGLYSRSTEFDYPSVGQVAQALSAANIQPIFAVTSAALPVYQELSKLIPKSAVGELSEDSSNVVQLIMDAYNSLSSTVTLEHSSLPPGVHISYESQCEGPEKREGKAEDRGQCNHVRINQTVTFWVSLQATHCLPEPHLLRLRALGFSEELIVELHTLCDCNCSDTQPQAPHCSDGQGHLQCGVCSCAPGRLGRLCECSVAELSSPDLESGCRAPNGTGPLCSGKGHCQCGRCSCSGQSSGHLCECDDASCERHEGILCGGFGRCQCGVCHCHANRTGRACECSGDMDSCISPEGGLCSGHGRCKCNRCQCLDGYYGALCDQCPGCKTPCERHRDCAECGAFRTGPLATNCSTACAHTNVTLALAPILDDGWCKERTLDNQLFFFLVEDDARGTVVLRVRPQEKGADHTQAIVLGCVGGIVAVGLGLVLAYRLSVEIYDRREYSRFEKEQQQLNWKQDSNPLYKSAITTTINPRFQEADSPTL

EC50 [2] [nM] | SMILES | other results
16.2 | CC(C)(O)[C@H](F)CNC(=O)c1cc(F)c(C(=O)N[C@@H](Cc2ccc(-c3ccc(C#N)cc3Cl)c3ncccc23)C(=O)O)c(F)c1 [Example 322] | –
3.6 | CC[C@@H](Nc1cc(F)c(C(=O)N[C@@H](Cc2ccc(-c3nc(C)c4ccc(F)cc4n3)c3ncccc23)C(=O)O)c(F)c1)C(F)(F)F [Example 258] | –
12.3 | CC[C@@H](Nc1cc(F)c(C(=O)N[C@@H](Cc2ccc(-c3ncc(C)cc3C(F)(F)F)c3ncccc23)C(=O)O)c(F)c1)C(F)(F)F [Example 310] | –
4.8 | Cc1nc(C)c(-c2ccc(C[C@H](NC(=O)c3c(F)cc(N4CCOC[C@@H]4C(F)(F)F)cc3F)C(=O)O)c3cccnc23)nc1C [Example 274] | –
4.3 | CC[C@@H](Nc1cc(F)c(C(=O)N[C@@H](Cc2ccc(-c3cc(N(C)C)c(C)n(C)c3=O)c3ncccc23)C(=O)O)c(F)c1)C(F)(F)F [Example 268] | –
4.8 | CC[C@@H](Nc1cc(F)c(C(=O)N[C@@H](Cc2ccc(-c3nc(C)cc(OC)c3C(F)(F)F)c3ncccc23)C(=O)O)c(F)c1)C(F)(F)F [Example 275] | –
0.8 | CC[C@@H](Nc1cc(F)c(C(=O)N[C@@H](Cc2ccc(-c3c(C)cc(C)n(C)c3=O)c3ncccc23)C(=O)O)c(F)c1)C(F)(F)F [Example 345] | –

More lines, now with the values behind:

SMILES | EC50 [2] [nM] | other results
CN1CCc2c(cc(-c3ccc(C[C@H](NC(=O)c4c(F)cc(N5CCOC[C@@H]5C(F)(F)F)cc4F)C(=O)O)c4cccnc34)c(=O)n2C)C1 [Example 437] | – | EC50 [1]: 0.261 nM
Cc1c(-c2ccc(C[C@H](NC(=O)c3c(F)cc(CS(=O)(=O)c4ccccc4)cc3F)C(=O)O)c3cccnc23)c(=O)n(C)c(=O)n1C [Example 203] | 1.6 | –
O=C(N[C@@H](Cc1ccc(-c2c(Cl)cc(F)cc2OC(F)F)c2ncccc12)C(=O)O)c1c(F)cccc1F [Example 149] | 50.3 | –
Cc1cc(N2CCOC[C@@H]2C(F)(F)F)cc(F)c1C(=O)N[C@@H](Cc1cc(F)c(-c2cc3cnccc3n(C)c2=O)c2ncccc12)C(=O)O [Example 464] | – | EC50 [1]: 0.13 nM
CC[C@@H](Nc1cc(Cl)c(C(=O)N[C@@H](Cc2ccc(-c3c(C(F)(F)F)cc(C)n(C)c3=O)c3ncccc23)C(=O)O)c(Cl)c1)C(F)(F)F [Example 143, (S)-2-(2,6-dichloro-4-(((R)-1,1,1-trifluorobutan-2-yl)amino)benzamido)-3-(8-(1,6-dimethyl-2-oxo-4-(trifluoromethyl)-1,2-dihydropyridin-3-yl)quinolin-5-yl)propanoic acid] | – | EC50 [3]: 0.3 nM
Cc1cc(N2CCOC[C@@H]2C(F)(F)F)cc(F)c1C(=O)N[C@@H](Cc1ccc(-n2c(=O)c3cnccc3n(C)c2=O)c2ncc(F)cc12)C(=O)O [Example 427] | – | EC50 [1]: 0.355 nM
Cc1[nH]c2cc(Cl)c(C(=O)N[C@@H](Cc3ccc(-c4ccc(C#N)cc4Cl)c4ncccc34)C(=O)O)c(Cl)c2c1C [Example 174] | 97.8 | –
Cc1cc(N2CCCC[C@@H]2C(F)(F)F)cc(F)c1C(=O)N[C@@H](Cc1ccc(-c2nc(C)c(C)n(C)c2=O)c2ncccc12)C(=O)O [Example 453] | – | EC50 [1]: 0.677 nM
Cc1cc(C(F)(F)F)c(-c2ccc(C[C@H](NC(=O)c3c(Cl)cccc3Cl)C(=O)O)c3cccnc23)c(=O)n1C [Example 73, (S)-2-(2,6-dichlorobenzamido)-3-(8-(1,6-dimethyl-2-oxo-4-(trifluoromethyl)-1,2-dihydropyridin-3-yl)quinolin-5-yl)propanoic acid] | – | EC50 [3]: 2.5 nM
Cc1cc(C)n(C)c(=O)c1-c1ccc(C[C@H](NC(=O)c2c(F)cc(N3CCCC[C@@H]3C(F)(F)F)cc2F)C(=O)O)c2cccnc12 [Example 202] | 1.5 | –
CC[C@@H](Nc1cc(F)c(C(=O)N[C@@H](Cc2ccc(-c3c(OC)ccn(C)c3=O)c3ncccc23)C(=O)O)c(F)c1)C(F)(F)F [Example 186] | 1 | –
Cn1cc(C(F)(F)F)cc(-c2ccc(C[C@H](NC(=O)c3c(F)cc(N4CCOC[C@@H]4C(F)(F)F)cc3F)C(=O)O)c3cccnc23)c1=O [Example 98, (S)-2-(2,6-difluoro-4-((R)-3-(trifluoromethyl)morpholino)benzamido)-3-(8-(1-methyl-2-oxo-5-(trifluoromethyl)-1,2-dihydropyridin-3-yl)quinolin-5-yl)propanoic acid] | – | EC50 [3]: 1.4 nM
COc1cnc2c(=O)n(-c3ccc(C[C@H](NC(=O)c4c(C)cc(N5CCOC[C@@H]5C(F)(F)F)cc4F)C(=O)O)c4cccnc34)c(=O)n(C)c2c1 [Example 415] | – | EC50 [1]: 0.091 nM
Cc1cc(Cl)c(-c2ccc(C[C@H](NC(=O)c3c(F)cc(N4CCOC[C@@H]4C(F)(F)F)cc3F)C(=O)O)c3cccnc23)c(=O)n1C [Example 100, (S)-3-(8-(4-chloro-1,6-dimethyl-2-oxo-1,2-dihydropyridin-3-yl)quinolin-5-yl)-2-(2,6-difluoro-4-((R)-3-(trifluoromethyl)morpholino)benzamido)propanoic acid] | – | EC50 [3]: 0.7 nM
Cc1cc(N2CCOC[C@@H]2C(F)(F)F)cc(F)c1C(=O)N[C@@H](Cc1ccc(-n2c(=O)c3c(n(C)c2=O)COCC3)c2ncccc12)C(=O)O [Example 411] | – | EC50 [1]: 0.06 nM
COc1cccc(F)c1C(=O)N[C@@H](Cc1ccc(-c2ccc(C#N)cc2Cl)c2ncccc12)C(=O)O [Example 23, (S)-3-(8-(2-chloro-4-cyanophenyl)quinolin-5-yl)-2-(2-fluoro-6-methoxybenzamido)propanoic acid] | – | EC50 [3]: 46.7 nM
CC[C@@H](Nc1cc(F)c(C(=O)N[C@@H](Cc2ccc(-c3c(C)c4cc(F)ccc4n(C)c3=O)c3ncccc23)C(=O)O)c(F)c1)C(F)(F)F (atropisomer, axis not shown) [Example 109, (S)-2-(2,6-difluoro-4-(((R)-1,1,1-trifluorobutan-2-yl)amino)benzamido)-3-(6-fluoro-1,4-dimethyl-2-oxo-1,2-dihydro-[3,8′-biquinolin]-5′-yl)propanoic acid] | – | EC50 [3]: 0.3 nM

SMILES | EC50 [2] [nM] | other results
CC[C@@H](Nc1cc(F)c(C(=O)N[C@@H](Cc2ccc(-c3cnc(C)n(C)c3=O)c3ncccc23)C(=O)O)c(F)c1)C(F)(F)F [Example 118, (S)-2-(2,6-difluoro-4-(((R)-1,1,1-trifluorobutan-2-yl)amino)benzamido)-3-(8-(1,2-dimethyl-6-oxo-1,6-dihydropyrimidin-5-yl)quinolin-5-yl)propanoic acid] | – | EC50 [3]: 1.5 nM
CCOCc1cc(OC)c(-c2ccc(C[C@H](NC(=O)c3c(Cl)cc4cc[nH]c4c3Cl)C(=O)O)c3cccnc23)c(OC)c1 [Example 219] | 2.1 | –
CC[C@@H](Nc1cc(F)c(C(=O)N[C@@H](Cc2ccc(-c3c(C(F)(F)F)c4c(n(C)c3=O)CCC4)c3ncccc23)C(=O)O)c(F)c1)C(F)(F)F [Example 126, (S)-2-(2,6-difluoro-4-(((R)-1,1,1-trifluorobutan-2-yl)amino)benzamido)-3-(8-(1-methyl-2-oxo-4-(trifluoromethyl)-2,5,6,7-tetrahydro-1H-cyclopenta[b]pyridin-3-yl)quinolin-5-yl)propanoic acid] | – | EC50 [3]: 0.6 nM
Cc1cc(N2CCOC[C@@H]2C(F)(F)F)cc(C)c1C(=O)N[C@@H](Cc1ccc(-c2c(C(F)(F)F)cc(C)n(C)c2=O)c2ncccc12)C(=O)O [Example 446] | – | EC50 [1]: 0.318 nM
Cc1cc(C(F)(F)F)c(-c2ccc(C[C@H](NC(=O)c3c(F)cc(N4CC(C)OCC4C(F)(F)F)cc3F)C(=O)O)c3cccnc23)c(=O)n1C (stereo partly shown) [Example 171] | 0.5 | –
COc1cc2c(=O)n(-c3ccc(C[C@H](NC(=O)c4c(C)cc(N5CCOC[C@@H]5C(F)(F)F)cc4F)C(=O)O)c4cccnc34)c(=O)n(C)c2cn1 [Example 429] | – | EC50 [1]: 0.162 nM
Cc1cc(N2CCOC[C@H]2C(F)(F)F)cc(F)c1C(=O)N[C@@H](Cc1ccc(-n2c(=O)c3ccncc3n(C)c2=O)c2ncccc12)C(=O)O [Example 409] | – | EC50 [1]: 0.401 nM
CC[C@@H](Nc1cc(F)c(C(=O)N[C@@H](Cc2ccc(-c3nc(C)cn(C)c3=O)c3ncccc23)C(=O)O)c(F)c1)C(F)(F)F [Example 209] | 1.9 | –
Cc1cc(N2CCC2)c(-c2ccc(C[C@H](NC(=O)c3c(F)cc(N4CCOC[C@@H]4C(F)(F)F)cc3F)C(=O)O)c3cccnc23)c(=O)n1C [Example 103, (S)-3-(8-(4-(azetidin-1-yl)-1,6-dimethyl-2-oxo-1,2-dihydropyridin-3-yl)quinolin-5-yl)-2-(2,6-difluoro-4-((R)-3-(trifluoromethyl)morpholino)benzamido)propanoic acid] | – | EC50 [3]: 0.7 nM
N#Cc1ccc(-c2ccc(C[C@H](NC(=O)c3c(F)cc(NC4(C(F)(F)F)CCC4)cc3F)C(=O)O)c3cccnc23)c(Cl)c1 [Example 164] | 88.6 | –
COc1cc(C)n(C)c(=O)c1-c1ccc(C[C@H](NC(=O)c2c(F)cc(N[C@H](C3CC3)C(F)(F)F)cc2F)C(=O)O)c2cccnc12 [Example 166] | 0.4 | –
Cc1cc(N2CCOC[C@@H]2C(F)(F)F)cc(F)c1C(=O)N[C@@H](Cc1ccc(-n2c(=O)[nH]c3cnccc3c2=O)c2ncccc12)C(=O)O [Example 421] | – | EC50 [1]: 0.191 nM
O=C(N[C@@H](Cc1ccc(-c2cc(F)c(F)cc2OC2CCC2)c2ncccc12)C(=O)O)c1c(F)cccc1F [Example 177] | 28 | –
COc1c(-c2ccc(C[C@H](NC(=O)c3c(F)cc(N[C@H](C)C(F)(F)F)cc3F)C(=O)O)c3cccnc23)c(=O)n(C)c2ccccc12 [Example 156] | 0.3 | –
Cc1cc(N2CC(F)(F)C2)c(-c2ccc(C[C@H](NC(=O)c3c(F)cc(N4CCOC[C@@H]4C(F)(F)F)cc3F)C(=O)O)c3cccnc23)c(=O)n1C [Example 476] | – | EC50 [1]: 0.337 nM
Cc1cc(C(F)(F)F)c(-c2ccc(C[C@H](NC(=O)c3c(F)cc(N4CCOCC4)cc3F)C(=O)O)c3cccnc23)c(=O)n1C [Example 217] | 2 | –

Reference: patent US11116760B2 (Gilead Sciences, Inc., priority 2018, dated 2021)
